From patent US8269015B2, “4-azetidinyl-1-heteroaryl-cyclohexane antagonists of CCR2” (Janssen Pharmaceutica N.V., priority 2009, dated 2012)

Biological target: T1, CCR2 (Homo sapiens, UniProt P41597)
T1 construct: host or cells: THP-1 (human monocytic cell line)
T1 sequence (P41597 1-360 isoform P41597-2): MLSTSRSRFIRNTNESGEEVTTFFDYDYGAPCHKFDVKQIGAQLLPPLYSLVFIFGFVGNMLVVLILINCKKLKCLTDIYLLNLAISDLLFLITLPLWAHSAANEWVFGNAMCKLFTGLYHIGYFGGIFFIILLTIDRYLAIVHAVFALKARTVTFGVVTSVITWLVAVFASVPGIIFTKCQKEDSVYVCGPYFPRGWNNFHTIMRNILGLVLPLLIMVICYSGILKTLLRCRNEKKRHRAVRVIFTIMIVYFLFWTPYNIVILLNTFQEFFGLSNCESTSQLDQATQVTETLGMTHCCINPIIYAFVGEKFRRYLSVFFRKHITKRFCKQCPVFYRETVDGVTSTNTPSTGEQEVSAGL
Assay: MCP-1 Receptor Binding Assay in THP-1 Cells (125I labeled MCP-1)
Conditions: 0.5 nM 125I labeled MCP-1, 2 hours at 30° C., read-out: Inhibition of MCP-1 Binding IC50, CCR2 Binding
Method: Compounds of the invention were subjected to various representative biological tests. […] MCP-1 Receptor Binding Assay in THP-1 Cells
Human monocytic cell line THP-1 cells were obtained from American Type Culture Collection (Manassas, Va., USA). […] The cell density was maintained […].
1 μM cold MCP-1 was used for nonspecific binding.

IC50 | Structure (SMILES)
0.007 µM | COc1ccc(C2CCC(N3CC(NC(=O)CNC(=O)c4cccc(C(F)(F)F)c4)C3)CC2)cn1 (single isomer, unassigned) [Example 1a, N-({1-[4-(6-Methoxy-pyridin-3-yl)-cyclohexyl]-azetidin-3-ylcarbamoyl}-methyl)-3-trifluoromethyl-benzamide]
0.025 µM | Nc1cccc(C2CCC(N3CC(NC(=O)CNC(=O)c4cccc(C(F)(F)F)c4)C3)CC2)n1 (single isomer, unassigned) [Example 22a, N-({1-[4-(6-Amino-pyridin-2-yl)-cyclohexyl]-azetidin-3-ylcarbamoyl}-methyl)-3-trifluoromethyl-benzamide]
0.072 µM | CNc1cccc(C2CCC(N3CC(NC(=O)CNC(=O)c4cccc(C(F)(F)F)c4)C3)CC2)n1 (single isomer, unassigned) [Example 23a, N-({1-[4-(6-Methylamino-pyridin-2-yl)-cyclohexyl]-azetidin-3-ylcarbamoyl}-methyl)-3-trifluoromethyl-benzamide]
2.7 µM | Nc1ccncc1C1CCC(N2CC(NC(=O)CNC(=O)c3cccc(C(F)(F)F)c3)C2)CC1 (single isomer, unassigned) [Example 27a, N-({1-[4-(4-Amino-pyridin-3-yl)-cyclohexyl]-azetidin-3-ylcarbamoyl}-methyl)-3-trifluoromethyl-benzamide]
0.189 µM | Nc1ccc(C2CCC(N3CC(NC(=O)CNC(=O)c4cccc(C(F)(F)F)c4)C3)CC2)cn1 (single isomer, unassigned) [Example 30a, N-({1-[4-(6-Amino-pyridin-3-yl)-cyclohexyl]-azetidin-3-ylcarbamoyl}-methyl)-3-trifluoromethyl-benzamide]
0.15 µM | Nc1ncccc1C1CCC(N2CC(NC(=O)CNC(=O)c3cccc(C(F)(F)F)c3)C2)CC1 (single isomer, unassigned) [Example 31a, N-({1-[4-(2-Amino-pyridin-3-yl)-cyclohexyl]-azetidin-3-ylcarbamoyl}-methyl)-3-trifluoromethyl-benzamide]
0.17 µM | O=C(CNC(=O)c1cccc(C(F)(F)F)c1)NC1CN(C2CCC(c3ccc(=O)[nH]c3)CC2)C1 (single isomer, unassigned) [Example 37a, N-({1-[4-(6-Oxo-1,6-dihydro-pyridin-3-yl)-cyclohexyl]-azetidin-3-ylcarbamoyl}-methyl)-3-trifluoromethyl-benzamide]
0.046 µM | Cn1cc(C2CCC(N3CC(NC(=O)CNC(=O)c4cccc(C(F)(F)F)c4)C3)CC2)ccc1=O (single isomer, unassigned) [Example 38a, N-({1-[4-(1-Methyl-6-oxo-1,6-dihydro-pyridin-3-yl)-cyclohexyl]-azetidin-3-ylcarbamoyl}-methyl)-3-trifluoromethyl-benzamide]
0.33 µM | CC(C)n1cc(C2CCC(N3CC(NC(=O)CNC(=O)c4cccc(C(F)(F)F)c4)C3)CC2)ccc1=O (single isomer, unassigned) [Example 40a, N-({1-[4-(1-Isopropyl-6-oxo-1,6-dihydro-pyridin-3-yl)-cyclohexyl]-azetidin-3-ylcarbamoyl}-methyl)-3-trifluoromethyl-benzamide]
0.25 µM | Cc1cc(C2CCC(N3CC(NC(=O)CNC(=O)c4cccc(C(F)(F)F)c4)C3)CC2)c[nH]c1=O (single isomer, unassigned) [Example 44a, N-({1-[4-(5-Methyl-6-oxo-1,6-dihydro-pyridin-3-yl)-cyclohexyl]-azetidin-3-ylcarbamoyl}-methyl)-3-trifluoromethyl-benzamide]
0.55 µM | Cn1ccc(C2CCC(N3CC(NC(=O)CNC(=O)c4cccc(C(F)(F)F)c4)C3)CC2)cc1=O (single isomer, unassigned) [Example 46a, N-({1-[4-(1-Methyl-2-oxo-1,2-dihydro-pyridin-4-yl)-cyclohexyl]-azetidin-3-ylcarbamoyl}-methyl)-3-trifluoromethyl-benzamide]

Further lines, the molecule ahead of its results:

Structure (SMILES) | IC50
O=C(CNC(=O)c1cccc(C(F)(F)F)c1)NC1CN(C2CCC(c3noc(N4CCCC4)n3)CC2)C1 (mixture of isomers) [Example 59, N-({1-[4-(5-Pyrrolidin-1-yl-[1,2,4]oxadiazol-3-yl)-cyclohexyl]-azetidin-3-ylcarbamoyl}-methyl)-3-trifluoromethyl-benzamide] | 0.4 µM
Cc1cc(=O)[nH]c(C2CCC(N3CC(NC(=O)CNC(=O)c4cccc(C(F)(F)F)c4)C3)CC2)n1 (mixture of isomers) [Example 60, N-({1-[4-(4-Methyl-6-oxo-1,6-dihydro-pyrimidin-2-yl)-cyclohexyl]-azetidin-3-ylcarbamoyl}-methyl)-3-trifluoromethyl-benzamide] | 3.9 µM
O=C(CNC(=O)c1cccc(C(F)(F)F)c1)NC1CN(C2CCC(c3nc4c(c(=O)[nH]3)CCCC4)CC2)C1 (mixture of isomers) [Example 61, N-({1-[4-(4-Oxo-3,4,5,6,7,8-hexahydro-quinazolin-2-yl)-cyclohexyl]-azetidin-3-ylcarbamoyl}-methyl)-3-trifluoromethyl-benzamide] | 4 µM
O=C(CNC(=O)c1cccc(C(F)(F)F)c1)NC1CN(C2CCC(c3nsc(Cl)n3)CC2)C1 (mixture of isomers) [Example 62, N-({1-[4-(5-Chloro-[1,2,4]thiadiazol-3-yl)-cyclohexyl]-azetidin-3-ylcarbamoyl}-methyl)-3-trifluoromethyl-benzamide] | 0.39 µM
O=C(CNC(=O)c1cccc(C(F)(F)F)c1)NC1CN(C2CCC(c3nc4n(n3)CCCC4)CC2)C1 (mixture of isomers) [Example 63, N-({1-[4-(5,6,7,8-Tetrahydro-[1,2,4]-triazolo[1,5-a]pyridin-2-yl)-cyclohexyl]-azetidin-3-ylcarbamoyl}-methyl)-3-trifluoromethyl-benzamide] | 1.5 µM
O=C(CNC(=O)c1cccc(C(F)(F)F)c1)NC1CN(C2CCC(c3ccc(=O)n(CC(F)(F)F)c3)CC2)C1 (single isomer, unassigned) [Example 42a, N-[(1-{4-[6-Oxo-1-(2,2,2-trifluoro-ethyl)-1,6-dihydro-pyridin-3-yl]-cyclohexyl}-azetidin-3-ylcarbamoyl)-methyl]-3-trifluoromethyl-benzamide] | 0.15 µM
Cc1cc(C2CCC(N3CC(NC(=O)CNC(=O)c4cccc(C(F)(F)F)c4)C3)CC2)cn(C)c1=O (single isomer, unassigned) [Example 45a, N-({1-[4-(1,5-Dimethyl-6-oxo-1,6-dihydro-pyridin-3-yl)-cyclohexyl]-azetidin-3-ylcarbamoyl}-methyl)-3-trifluoromethyl-benzamide] | 0.061 µM
COC(=O)Nc1ncc(C2CCC(N3CC(NC(=O)CNC(=O)c4cccc(C(F)(F)F)c4)C3)CC2)s1 (single isomer, unassigned) [Example 51a, [5-(4-{3-[2-(3-Trifluoromethyl-benzoylamino)-acetylamino]-azetidin-1-yl}-cyclohexyl)-thiazol-2-yl]-carbamic acid methyl ester] | 0.34 µM
O=C(CNC(=O)c1cccc(C(F)(F)F)c1)NC1CN(C2CCC(c3cnc(C(=O)O)s3)CC2)C1 (single isomer, unassigned) [Example 52a, 5-(4-{3-[2-(3-Trifluoromethyl-benzoylamino)-acetylamino]-azetidin-1-yl}-cyclohexyl)-thiazole-2-carboxylic acid] | 2.8 µM
